One data set can be described thus: 14 day LD 50 (tolerance). The data set is classed as in vivo.
Data set [1] in a line: UV absorption spectral data (wavelength λmax, molar extinction ε, specific extinction E1^1). The data set is classed as physicochemical. Particulars: Table II; for Molar extinction ε: in M-1cm-1.
A short description of data set [2]: Solubilities at room temperature (20-25° C.) in groundnut oil and groundnut oil/liquid paraffin 1:9. The data set is classed as physicochemical.

The values that follow come from patent US4284621A, “Agents for protection against light” (Bayer Aktiengesellschaft, priority 1978, dated 1981).

Turning to “4-methoxy-benzylidene-cyanoacetic acid isononyl ester [iso-Nonyl]”, the “14 day LD 50” value in “14 day LD 50 (tolerance)” is 20.76 mL/kg. In data set [1], the “Specific extinction E1^1” value came out at 860, the “Wavelength λmax (nm)” value was found to be 341 nm and the “Molar extinction ε” value was 28,400.

Take `CCCCCCOC(=O)C(C#N)=Cc1ccc(OC)cc1` [n-Hexyl, 4-methoxy-benzylidene-cyanoacetic acid n-hexyl ester]: the “14 day LD 50” value in “14 day LD 50 (tolerance)” was 5.71 mL/kg. Moreover, in data set [1], the “Specific extinction E1^1” value is 990, the “Wavelength λmax (nm)” value is reported as 342 nm and the “Molar extinction ε” value is given as 28,500. Further, the “Solubility at room temperature in groundnut oil/liquid paraffin 1:9 (%)” value in data set [2] (groundnut oil/liquid paraffin 1:9) was determined as 90%.

`O=C(c1ccc(O)cc1O)c1ccc(O)cc1O` [(2), 2,2',4,4'-tetrahydroxybenzophenone]: in data set [1], the “Specific extinction E1^1” value was 645, the “Wavelength λmax (nm)” value came to 351 nm and the “Molar extinction ε” value is recorded as 15,900. In data set [1] (comparison with compounds of formula I), the “specific extinction (in words, compared with compounds of formula I)” value is “significantly lower specific extinction”. For the same compound, in data set [2] (groundnut oil), the “Solubility at room temperature in groundnut oil (%)” value was 0.8%.
